What was measured:
[1] = target: T1, human RORγt ligand binding domain (RORγt LBD) (Homo sapiens, UniProt P51449); experiment: RORγt ThermoFluor assay; settings: estimated from thermal shift concentration response
T1 construct: His-tag (N); TurboTEV protease cleavage site (ENLYFQG) (N); made in house; host or cells: E. coli (pHIS1, a modified pET expression vector)
T1 sequence (P51449 with tags, fused parts or gaps): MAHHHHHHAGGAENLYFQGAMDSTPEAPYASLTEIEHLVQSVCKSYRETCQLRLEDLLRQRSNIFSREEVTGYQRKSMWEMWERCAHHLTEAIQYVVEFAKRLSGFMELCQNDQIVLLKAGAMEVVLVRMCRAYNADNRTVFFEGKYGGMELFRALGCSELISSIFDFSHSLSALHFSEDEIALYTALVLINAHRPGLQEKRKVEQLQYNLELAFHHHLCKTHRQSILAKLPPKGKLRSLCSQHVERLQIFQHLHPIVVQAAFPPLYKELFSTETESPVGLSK
Procedure, shortened: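 Thermal shift of RORγt LBD (0.065 mg/mL) with 60 μM 1,8-ANS in 100 mM Hepes pH 7.0, NaCl, GSH, 0.002% Tween-20, heated at 1° C/min. ANS fluorescence tracked versus temperature; ΔTm relative to DMSO wells. Compounds serially diluted 1:2 from 10 mM DMSO stock.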

full-length human RORγt [2] = target: T2, full-length human RORγt (Homo sapiens, UniProt P51449); experiment: RORγt (full-length human) Reporter Assay, Conditions A; type: cell-based
T2 construct: expressed in transfected cells; host or cells: HEK293T, transiently transfected with pCMV-BD-ROR
T2 sequence (P51449 1-497 isoform P51449-2): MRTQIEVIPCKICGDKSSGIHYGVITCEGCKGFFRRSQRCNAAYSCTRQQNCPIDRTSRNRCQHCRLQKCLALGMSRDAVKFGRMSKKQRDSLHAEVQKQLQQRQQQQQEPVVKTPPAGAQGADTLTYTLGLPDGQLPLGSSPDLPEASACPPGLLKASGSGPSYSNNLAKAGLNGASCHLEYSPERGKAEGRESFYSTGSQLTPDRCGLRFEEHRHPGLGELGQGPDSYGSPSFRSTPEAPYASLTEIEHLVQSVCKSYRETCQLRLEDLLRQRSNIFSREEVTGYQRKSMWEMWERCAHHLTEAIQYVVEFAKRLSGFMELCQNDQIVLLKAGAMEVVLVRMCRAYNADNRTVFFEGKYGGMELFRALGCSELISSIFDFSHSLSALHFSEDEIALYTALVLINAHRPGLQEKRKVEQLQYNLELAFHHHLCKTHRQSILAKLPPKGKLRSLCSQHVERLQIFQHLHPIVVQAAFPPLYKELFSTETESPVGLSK
Procedure, shortened: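 Reporter cells lysed after 16–20 h compound exposure; firefly and Renilla luciferase luminescence measured. Firefly signal normalised to DMSO and saturating reference compound, then to Renilla; IC50 from normalised data versus concentration, percent inhibition relative to DMSO.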

full-length human RORγt [3] = target: T2, full-length human RORγt; experiment: RORγt (full-length human) Reporter Assay, Conditions B or C; type: cell-based
Protocol: HEK293T cells were plated at 35,000 per well in 96-well plate in medium of DMEM with 10% FBS. […] After overnight (16 to 20 hours) incubation, media were removed and cells were lysed with 50 μL Glo Lysis Buffer (Promega) for 10-15 minutes followed by 10 minute incubation with 50 uL Dual Glo reagent (Promega) at room temperature. Firefly luciferase luminescence was measured using a BMG Pherastar plate reader. To each well, 50 uL Stop and Glo reagent was added and incubated for 10 minutes at room temperature. Renilla luminescence was measured using a BMG Pherastar plate reader. To calculate the effect of compounds on RORγt activity, firefly values were normalized against values of DMSO only and values of reference compound at saturating concentration, then further normalized against Renilla signals. IC50s were generated by plotting final Renilla normalized data against compound concentration and percent inhibition was calculated against DMSO control. […] HEK293T cells were plated at 8750 cells per well in 384-well plate in medium of DMEM with 10% FBS. […] After overnight (16 to 20 hours) incubation, media were removed and cells were lysed with 20 μL Glo Lysis Buffer (Promega) for 10-15 minutes followed by 10 minute incubation with 20 uL Dual Glo reagent (Promega) at room temperature. Firefly luciferase luminescence was measured using a BMG Pherastar plate reader. To each well, 20 uL Stop and Glo reagent was added and incubated for 10 minutes at room temperature. Renilla luminescence was measured using a BMG Pherastar plate reader. To calculate the effect of compounds on RORγt activity, firefly values were normalized against values of DMSO only and values of reference compound at saturating concentration, then further normalized against Renilla signals. IC50s were generated by plotting final Renilla normalized data against compound concentration and percent inhibition was calculated against DMSO control.

[4] = tested on: IL-17 production by CD4 T cells; experiment: Human Th17 Assay; type: cell-based; settings: 72 h; IL-17 in supernatant, 3 days, human CD4+ T cells; read-out: Human Th17 Assay, IC50
Protocol: The human Th17 assay tests the effect of RORγt modulatory compounds on IL-17 production by CD4 T cells under conditions which favor Th17 differentiation. Total CD4^+ T cells were isolated from the peripheral blood mononuclear cells (PBMC) of healthy donors using a CD4^+ T cell isolation kit II, following the manufacturer's instructions (Miltenyi Biotec). […] 50 μL of compound at titrated concentrations in DMSO were added into each well at final DMSO concentration at 0.2%. Cells were incubated for 1 hour, then 50 μL of Th17 cell differentiation medium was added to each well. The final concentrations of antibodies and cytokines (R&D Systems) in differentiation medium were: 3×10^6/mL anti-CD3/CD28 beads (prepared using human T cell activation/expansion kit, Miltenyi Biotec), 10 μg/mL anti-IL4, 10 μg/mL anti-IFNγ, 10 ng/mL IL1β, 10 ng/mL IL23, 50 ng/mL IL6, 3 ng/mL TGFβ and 20 U/mL IL2. Cells were cultured at 37° C. and 5% CO2 for 3 days. Supernatants were collected and the accumulated IL-17 in culture was measured by using MULTI-SPOT® Cytokine Plate following manufacture's instruction (Meso Scale Discovery). The plate was read using Sector Imager 6000, and IL-17 concentration was extrapolated from the standard curve. The IC50s were determined by GraphPad.

Kd [1]: 1 nM
IC50 (full-length human RORγt [2]; HEK293T cells, GAL4-DBD-RORγt, luciferase, read-out: RORγt (FL) Reporter Assay A, IC50): 38 nM
inhibition at 2 µM (full-length human RORγt [2]; read-out: RORγt (FL) Reporter Assay A, % inhibition (* at 2 μM), 2 μM compound concentration (footnote *)): 102%
IC50 (full-length human RORγt [3]; HEK293T cells, GAL4-DBD-RORγt, luciferase, read-out: RORγt (FL) Reporter Assay B or C, IC50): 6 nM
inhibition at 2 µM (full-length human RORγt [3]; read-out: RORγt (FL) Reporter Assay B or C, % inhibition (* at 2 μM), 2 μM compound concentration (footnote *)): 108%
IC50 [4]: 64 nM
Compound: C[C@H]1CCCN1C(=O)c1nc(-c2nnc(C(C)(C)O)o2)sc1-c1ccc(C(O)(C(F)(F)F)C(F)(F)F)cc1C(F)(F)F [Example 7/1, (S)-(5-(4-(1,1,1,3,3,3-hexafluoro-2-hydroxypropan-2-yl)-2-(trifluoromethyl)phenyl)-2-(5-(2-hydroxypropan-2-yl)-1,3,4-oxadiazol-2-yl)thiazol-4-yl)(2-methylpyrrolidin-1-yl)methanone]

— US9845319B2, “Amide substituted thiazoles as modulators of RORyt” (Janssen Pharmaceutica NV, priority 2014, dated 2017)
